Key:
[1] = system: MCF-7 breast cancer cells; experiment: Cell cycle assay (Example 164), G2/M block in MCF-7 cells; format: cell-based; conditions: 24 h, flow cytometry (PI); for activation at 0.1 µM: Homo sapiens, MCF7, Table 4
Experimental: (§1) The adherent MCF-7 breast cancer cells and NCI-H522 non small cell lung cancer cells were grown and maintained in EMEM cell culture media containing 10% fetal calf serum.
(§2) Cells were allowed to adhere for 24 hrs. After adherence, cell culture media was changed to that containing 0.5% FCS. Thirty minutes post-media change, test compounds were added at a concentration of either 1.0 or 0.1 μM (as specified in the Tables). Twenty-four hours after test agent addition, cells were analyzed for cell cycle status as described below.
(§3) Cell cycle status was analyzed by flow cytometry. Briefly, cells were collected and washed with FACs buffer (Pharmingen) and resuspended and fixed in 1 mL of 80% ethanol for 1 hr. Cells were washed with FACs buffer and resuspended in propidium iodide(PI)/RNase staining buffer (Pharmingen). PI is a fluorescent dye that labels nucleic acids such as DNA. The fluorescence within a cell (in the presence of PI) is proportional to the amount of DNA within a cell. The cell content of DNA is an indicator of status in the cell cycle. […] Cells in the S phase have DNA content that lies between these extremes.
(§4) For testing of cell cycle effects of test agents the percentage of cells within the G1 and G2/M phase were measured.

[2] = system: NCI-H522 non small cell lung cancer cells; experiment: Cell cycle assay (Example 164), G2/M block in NCI-H522 cells; format: cell-based; conditions: Homo sapiens, 0.1 μM, 24 h, flow cytometry (PI)
Experimental: as §1, §2, §3, §4

Structure (SMILES) | activation at 0.1 µM [1] [%] | activation at 0.1 µM ([2]; Table 4) [%] | MCF-7 G2/M Block 1 μM ([1]; 1 μM, Table 3) | activation at 0.1 µM ([2]; Table 3) [%]
Nc1nccc(-c2cc(Br)cc(-c3cccc4[nH]ccc34)c2)n1 [4-[3-Bromo-5-(1H-indol-4-yl)-phenyl]-pyrimidin-2-ylamine] | ≥ 50 | ≥ 50 |  | 
CS(=O)(=O)Nc1cc(C(=O)c2ccnc(N3CCCCC3)c2)cc(-c2cccc3[nH]ccc23)c1 [N-[3-(1H-Indol-4-yl)-5-(3,4,5,6-tetrahydro-2H-[1,2′]bipyridinyl-4′-carbonyl)-phenyl]-methanesulfonamide] | < 50 | ≥ 50 |  | 
O=C(CO)Nc1cc(C(=O)c2ccnc(N3CCOCC3)c2)cc(-c2cccc3[nH]ccc23)c1 [2-Hydroxy-N-[3-(1H-indol-4-yl)-5-(2-morpholin-4-yl-pyridine-4-carbonyl)-phenyl]-acetamide] | ≥ 50 | ≥ 50 |  | 
CN(C)c1cc(C(=O)c2cc(NS(C)(=O)=O)cc(-c3cccc4[nH]ccc34)c2)ccn1 [N-[3-(2-Dimethylamino-pyridine-4-carbonyl)-5-(1H-indol-4-yl)-phenyl]-methanesulfonamide] | ≥ 50 | ≥ 50 |  | 
CS(=O)(=O)Nc1cc(-c2ccc(F)cc2F)cc(-c2cccc3[nH]ccc23)c1 [N-[5-(1H-Indol-4-yl)-2′,4′-difluoro-biphenyl-3-yl]-methanesulfonamide] | < 50 | ≥ 50 |  | 
COC(=O)Nc1cc(C(=O)c2cc(C)nc(C#N)c2)cc(-c2cccc3[nH]ccc23)c1 [[3-(2-Cyano-6-methyl-pyridine-4-carbonyl)-5-(1H-indol-4-yl)-phenyl]-carbamic acid methyl ester] | ≥ 50 | ≥ 50 |  | 
CN(C)c1cc(C(=O)c2ccnc(N(C)C)c2)cc(-c2cccc3[nH]ccc23)c1 [[3-Dimethylamino-5-(1H-indol-4-yl)-phenyl]-(2-dimethylamino-pyridin-4-yl)-methanone] | < 50 | ≥ 50 |  | 
CS(=O)(=O)Nc1cc(-c2cccc(C(F)(F)F)c2)cc(-c2cccc3[nH]ccc23)c1 [N-[5-(1H-indol-4-yl)-3′-trifluoromethyl-biphenyl-3-yl]-methanesulfonamide] | ≥ 50 | ≥ 50 |  | 
COC(=O)Nc1cc(-c2cccnc2)cc(-c2cccc3[nH]ccc23)c1 [[3-(1H-Indol-4-yl)-5-pyridin-3-yl-phenyl]-carbamic acid methyl ester] | < 50 | ≥ 50 |  | 
CC(=O)Nc1cc(C(=O)c2ccnc(N3CCOCC3)c2)cc(-c2cccc3[nH]ccc23)c1 [N-[3-(1H-Indol-4-yl)-5-(2-morpholin-4-yl-pyridine-4-carbonyl)-phenyl]-acetamide] | ≥ 50 | ≥ 50 |  | 
COC(=O)Nc1cc(C(=O)c2cc(C)nc(N(C)C)c2)cc(-c2cccc3[nH]ccc23)c1 [[3-(2-Dimethylamino-6-methyl-pyridine-4-carbonyl)-5-(1H-indol-4-yl)-phenyl]-carbamic acid methyl ester] | ≥ 50 | ≥ 50 |  | 
CN(C)c1ncccc1Nc1cc(O)cc(-c2cccc3[nH]ccc23)c1 [3-(2-Dimethylamino-pyridin-3-ylamino)-5-(1H-indol-4-yl)-phenol] |  |  | Y (Y indicates a 50% or greater increase in the number of cells in the G2/M phase, as compared to control) | ≥ 50
Cc1cccc(-c2cc(NS(C)(=O)=O)cc(-c3cccc4[nH]ccc34)c2)c1 [N-[5-(1H-Indol-4-yl)-3′-methyl-biphenyl-3-yl]-methanesulfonamide] | ≥ 50 | ≥ 50 |  | 
CC(=O)Nc1cc(-c2ccncc2)cc(-c2cccc3[nH]ccc23)c1 [N-[3-(1H-Indol-4-yl)-5-pyridin-4-yl-phenyl]-acetamide] | ≥ 50 | ≥ 50 |  | 
Cc1cc(C(=O)c2cc(NS(C)(=O)=O)cc(-c3cccc4[nH]ccc34)c2)cc(N(C)C)n1 [N-[3-(2-Dimethylamino-6-methyl-pyridine-4-carbonyl)-5-(1H-indol-4-yl)-phenyl]-methanesulfonamide] | ≥ 50 | ≥ 50 |  | 

Source: patent publication US20080280891A1, “Anti-cancer agents and uses thereof” (Locus Pharmaceuticals, Inc., priority 2006, published 2008)
